Measurements taken from article PMC12867150, “A fungi-derived cyclic peptide enhances Th9-mediated antitumor immunity by targeting ZAP70 and SREBP1” (The Journal of Clinical Investigation, 2025).
Where “and” joins values, the source holds several entries; their conditions need not be identical. Equal entries are not always repeated.

Tests used:
[1] = test system: natural killer (NK) cells; assay: Flow cytometry of NK cells (S1L-M); format: in vivo, mouse; parameters: key to Frequencies of NK in Spleen / Frequencies of NK in LN: % of cells; conditions: for Frequencies of NK in LN: Supplemental Figure 1M left; for number of NK in LN: Supplemental Figure 1M right; for NK (NK1.1) gate number: representative flow plot; for Frequencies of NK in Spleen: Supplemental Figure 1L left; for number of NK in Spleen: Supplemental Figure 1L right
Description: C57BL/6 mice were subcutaneously injected with 5 × 10^5 B16-OVA melanoma cells. Five days after tumor implantation, mice received an intravenous infusion of 2 × 10^6 in vitro–differentiated Th9 cells (cultured for 5 days), which were derived from OT-II CD45.1 donor mice, accompanied by 4 × 10^5 OVA peptide–pulsed DCs via the tail vein. To enhance T cell engraftment and facilitate lymphodepletion, a single intraperitoneal injection of cyclophosphamide (200 mg/kg, Sigma, catalog C0768) was administered 1 day prior to T cell transfer. Mice were euthanized at designated time points for the collection and analysis of spleens, tumor-draining lymph nodes, and tumor tissues.
(§1) Details regarding staining panels (human and mouse), reagents (including clones and catalog numbers), acquisition settings, compensation/controls, and analysis procedures are provided in Supplemental Methods. […]
Figure S1. EpA enhances immune responses. […]
(L and M) Representative plots, frequencies, and total numbers of natural killer (NK) cells in spleens (L) and LNs (M). Data in (A–M) are shown as mean ± SEM from n = 4 mice per group. Statistical analysis was performed using two-way ANOVA with Tukey’s post hoc test (A), one-way ANOVA with Tukey’s post hoc test (B) or two-tailed unpaired Student’s t-test (D and G–M). ns, not significant. *p < 0.05, **p < 0.01, ****p < 0.0001.
(also on this page, place not known: Mouse weight (g) CtrlEpA CtrlEpA CtrlEpA0 I CD45.1+ T cells (%) CtrlEpA CD4+ T cells (%) CtrlEpA CtrlEpA CtrlEpA FSC CD8 CD8 FSC FSC FSC BNumber of CD45.1+ T cells (×103 per mgĎ Number of CD4+ T cells (×104 per mgĎ DC (%)NK cells (%) NK cells (%) DC (%) Number of DC (×103 per mg) Number of NK cells (×105) Number of NK cells (×103 per mg) Number of DC (×105) FSC FSC FSC CD8 CtrlEpA CtrlEpA CtrlEpA CD8+ T cells (%) Number of CD8+ T cells (×104 per mgĎ nsns ns nsns ns 40 IL-6 (pg/ml))

[2] = test system: mitochondria of Th9 cells; assay: Transmission electron microscopy of mitochondrial number and diameter (Figure 4J-K); format: cell-based, mouse
Description: Mitochondrial mass and membrane potential were assessed using MitoTracker™ Deep Red FM (Thermo Fisher Scientific, catalog M22426) and TMRM (tetramethylrhodamine methyl ester; Macklin, catalog T868125), respectively, following the manufacturers’ protocols. Cells were incubated with the respective dyes, washed, and subjected to flow cytometry or fluorescence microscopy analysis. For ultrastructural assessment, mitochondrial number and diameter were quantified from high-resolution transmission electron microscopy (TEM) images using ImageJ software.

Raji-luciferase tumor = assay: Raji-luciferase xenograft, bioluminescence tumor radiance (Figure 8J-K); format: in vivo, NSG mice; conditions: EpA-treated human Th9 CAR T cells 2 × 10^6 i.v.; n = 5; result in words
Excerpt: Representative plots (A) and quantification (B) (n = 4). (C) Quantitative PCR analysis of IL9, IRF4, and SPI1 mRNA expression in human Th9 cells (n = 3). (D) Flow-cytometric analysis of mitochondrial membrane potential in human Th9 cells (n = 3). (E) Luciferase-based assay analysis of intracellular ATP levels in human Th9 cells (n = 5). (F) Flow-cytometric analysis of phosphorylated ZAP70 in human Th9 cells (n = 3). (G) Flow-cytometric analysis of TNF-α expression in human Th9 cells (n = 4). (H) Cytotoxicity assay of EpA-treated or control CD19 CAR Th9 cells against Raji lymphoma target cells at indicated effector-to-target (E/T) ratios (n = 3). (I) Schematic diagram of the in vivo Raji-luciferase xenograft model in NSG mice receiving control or EpA-treated human Th9 CAR T cells. (J and K) Representative bioluminescence imaging (J) and quantification of tumor radiance (K) in NSG mice at indicated time points after adoptive transfer. […] Statistical significance was determined using 2-tailed unpaired Student’s t test (B–H), 2-way ANOVA followed by Šidák’s post hoc test (K), and log-rank test (L). […]
For xenograft models, M-NSG mice were intravenously inoculated with 1 × 10^6 Raji-CD19 tumor cells. […] Tumor progression and immune cell infiltration were subsequently monitored according to experimental endpoints.

human Th9 CAR T cells = assay: Granzyme B+ CAR Th9 cells from spleens after transfer (S9H-I); format: in vivo, mouse; conditions: for Proportion of GzmB⁺ cells in spleen: Supplemental Figure 9I
Description: For xenograft models, M-NSG mice were intravenously inoculated with 1 × 10^6 Raji-CD19 tumor cells. On day 5 after inoculation, 2 × 10^6 CD19-CAR Th9 cells were administered intravenously to evaluate in vivo therapeutic efficacy. Tumor progression and immune cell infiltration were subsequently monitored according to experimental endpoints.
as §1
Th9 CAR-T c e l l s (n = 3). (H and I) Flow-cytometric analysis of granzyme B⁺ CAR-
Th9 cells isolated from spleens after adoptive transfer, showing representative plots
(H) and quantification (I) (n = 5 mice per group). Statistical analysis was performed
using one-way ANOVA with Tukey’s post hoc test (A and B), or two-tailed unpaired
Student’s t-test (E–G, and I). Repeated data are presented as mean ± SEM. *p < 0.05,
(also on this page, place not known: TP cells ANOV A 30IL-9+ cells (%) Fato Fato Fato Fato A SSC GzmB CtrlEpA MFIofMitoTracker (×102) GF NormalizedATPlevel CtrlEpA 4MFI of Mito Tracker (×105) CtrlEpA0 GzmB+ cells (%) CD4 10 20 IL-9+ cells (%) Day60 10 20 30 Ctrl)

Substance: anteiso-C15 Leu7 surfactin [EpA]
- Frequencies of NK in LN ([1]; LN, replicate 1): 1.5
- Frequencies of NK in LN ([1]; LN, replicate 2): 1.56
- Frequencies of NK in LN ([1]; LN, replicate 3): 7.14
- Frequencies of NK in LN ([1]; LN, replicate 4): 7.79
- number of NK in LN ([1]; LN, replicate 1): 2211.77
- number of NK in LN ([1]; LN, replicate 2): 2015.49
- number of NK in LN ([1]; LN, replicate 3): 5620.7
- number of NK in LN ([1]; LN, replicate 4): 5844.48
- NK (NK1.1) gate number ([1]; LN, Figure S1M): 1.56
- Frequencies of NK in Spleen ([1]; Spleen, replicate 1): 14.2
- Frequencies of NK in Spleen ([1]; Spleen, replicate 2): 14.6
- Frequencies of NK in Spleen ([1]; Spleen, replicate 3): 14.4
- Frequencies of NK in Spleen ([1]; Spleen, replicate 4): 13.7
- number of NK in Spleen ([1]; Spleen, replicate 1): 1287047
- number of NK in Spleen ([1]; Spleen, replicate 2): 1289552
- number of NK in Spleen ([1]; Spleen, replicate 3): 1303518
- number of NK in Spleen ([1]; Spleen, replicate 4): 1053933
- NK (NK1.1) gate number ([1]; Spleen, Figure S1L): 14.2
- NK cells ([1]; result in words): increased only in the spleen
- Number of mitochonodrion/cell ([2]; Figure 4J, individual cells): 12 and 23 and 11 and 16 and 10 and 21 and 9 and 17 and 6 and 7 and 24
- number and diameter of mitochondria ([2]; result in words): increased number and diameter of mitochondria
- tumor burden (Raji-luciferase tumor): markedly reduced tumor burden
- granzyme B levels in CAR T cells after transfer (human Th9 CAR T cells; result in words): elevated
- Proportion of GzmB⁺ cells in spleen (human Th9 CAR T cells; replicate 1): 22.5
- Proportion of GzmB⁺ cells in spleen (human Th9 CAR T cells; replicate 2): 28.9
- Proportion of GzmB⁺ cells in spleen (human Th9 CAR T cells; replicate 3): 40.8
- Proportion of GzmB⁺ cells in spleen (human Th9 CAR T cells; replicate 4): 84.4
- Proportion of GzmB⁺ cells in spleen (human Th9 CAR T cells; replicate 5): 47.4
- granzyme B+ CAR Th9 gate number (human Th9 CAR T cells; spleens after transfer, representative flow plot, Figure S9H): 47.4
